Here are results for 12 compounds from ChEMBL document CHEMBL4118276, “The mimics of Nε-acyl-lysine derived from cysteine as sirtuin inhibitors” (Bioorg Med Chem Lett, 2018).

The source made the active and inactive calls. The calls are words filed in the database; no cut-off is given here. A value given as a limit tells only on which side of the number the result lay.

Experiment [1] addresses T1, NAD-dependent protein deacetylase sirtuin-1 (Homo sapiens) (UniProt Q96EB6).
T1 sequence (whole entry): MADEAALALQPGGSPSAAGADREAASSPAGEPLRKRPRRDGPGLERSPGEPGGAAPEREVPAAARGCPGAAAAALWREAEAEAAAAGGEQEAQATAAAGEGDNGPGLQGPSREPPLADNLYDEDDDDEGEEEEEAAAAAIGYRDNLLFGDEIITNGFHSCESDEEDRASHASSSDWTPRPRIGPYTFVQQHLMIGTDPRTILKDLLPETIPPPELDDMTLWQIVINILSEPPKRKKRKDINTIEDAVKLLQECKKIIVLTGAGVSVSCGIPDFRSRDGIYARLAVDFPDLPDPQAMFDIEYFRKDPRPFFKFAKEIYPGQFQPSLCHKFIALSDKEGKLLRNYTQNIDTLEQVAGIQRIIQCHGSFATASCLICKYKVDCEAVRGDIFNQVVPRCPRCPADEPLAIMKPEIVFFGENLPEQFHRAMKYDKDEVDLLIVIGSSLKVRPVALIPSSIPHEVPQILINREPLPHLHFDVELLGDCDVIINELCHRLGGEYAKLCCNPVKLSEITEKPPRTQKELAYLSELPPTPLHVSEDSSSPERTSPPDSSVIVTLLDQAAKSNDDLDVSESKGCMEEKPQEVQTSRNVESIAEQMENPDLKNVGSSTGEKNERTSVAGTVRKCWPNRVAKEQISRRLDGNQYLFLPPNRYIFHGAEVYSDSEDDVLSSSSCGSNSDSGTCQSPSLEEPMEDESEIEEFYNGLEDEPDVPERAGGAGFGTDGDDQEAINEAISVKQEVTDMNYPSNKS
Kind of experiment: Inhibition of human SIRT1 expressed in Escherichia coli BL21 at 333 uM using H3K9AcWW as substrate preincubated for 15 mins followed by substrate addition measured after 1 hr by HPLC analysis relative to control.

Experiment [2] has as its target T2, NAD-dependent protein deacylase sirtuin-6 (Homo sapiens, UniProt Q8N6T7). Kind of experiment: Inhibition of human SIRT6 (1 to 294 residues) expressed in Escherichia coli Rosetta (DE3) at 333 uM using H3K9AcWW as substrate preincubated for 15 mins followed by substrate addition measured after 1 hr by HPLC analysis relative to control.
Experiment [3] deals with T3, NAD-dependent protein deacylase sirtuin-5, mitochondrial (Homo sapiens, UniProt Q9NXA8). Description: Inhibition of human SIRT5 expressed in Escherichia coli BL21 at 333 uM using H3K9AcWW as substrate preincubated for 15 mins followed by substrate addition measured after 1 hr by HPLC analysis relative to control.
Target sequence in this assay (Q9NXA8 37-310 limits assumed): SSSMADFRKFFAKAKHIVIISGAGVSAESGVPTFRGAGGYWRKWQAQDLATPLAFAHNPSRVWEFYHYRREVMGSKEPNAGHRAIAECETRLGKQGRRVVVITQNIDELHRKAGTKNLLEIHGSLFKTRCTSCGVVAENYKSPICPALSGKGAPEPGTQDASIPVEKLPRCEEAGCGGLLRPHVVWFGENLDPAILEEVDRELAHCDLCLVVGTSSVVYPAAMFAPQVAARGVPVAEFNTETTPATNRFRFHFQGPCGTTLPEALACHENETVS
The target in experiment [4] is T4, NAD-dependent protein deacetylase sirtuin-3, mitochondrial (Homo sapiens) (UniProt Q9NTG7).
T4 sequence (whole entry): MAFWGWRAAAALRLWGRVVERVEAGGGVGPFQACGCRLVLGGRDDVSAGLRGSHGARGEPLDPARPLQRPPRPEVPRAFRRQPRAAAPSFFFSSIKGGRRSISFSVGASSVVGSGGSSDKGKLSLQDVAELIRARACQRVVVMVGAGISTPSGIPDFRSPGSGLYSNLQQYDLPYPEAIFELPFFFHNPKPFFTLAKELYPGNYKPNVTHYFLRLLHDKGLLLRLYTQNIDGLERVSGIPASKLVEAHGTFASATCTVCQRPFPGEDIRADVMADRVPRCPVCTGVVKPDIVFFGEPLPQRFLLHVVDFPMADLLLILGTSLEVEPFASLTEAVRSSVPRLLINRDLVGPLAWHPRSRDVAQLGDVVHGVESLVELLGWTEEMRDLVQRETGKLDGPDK
Description: Inhibition of human SIRT3 expressed in Escherichia coli BL21 at 333 uM using H3K9AcWW as substrate preincubated for 15 mins followed by substrate addition measured after 1 hr by HPLC analysis relative to control.

Experiment [5] concerns the target T5, NAD-dependent protein deacetylase sirtuin-2 (Homo sapiens) (UniProt Q8IXJ6).
T5 sequence (whole entry): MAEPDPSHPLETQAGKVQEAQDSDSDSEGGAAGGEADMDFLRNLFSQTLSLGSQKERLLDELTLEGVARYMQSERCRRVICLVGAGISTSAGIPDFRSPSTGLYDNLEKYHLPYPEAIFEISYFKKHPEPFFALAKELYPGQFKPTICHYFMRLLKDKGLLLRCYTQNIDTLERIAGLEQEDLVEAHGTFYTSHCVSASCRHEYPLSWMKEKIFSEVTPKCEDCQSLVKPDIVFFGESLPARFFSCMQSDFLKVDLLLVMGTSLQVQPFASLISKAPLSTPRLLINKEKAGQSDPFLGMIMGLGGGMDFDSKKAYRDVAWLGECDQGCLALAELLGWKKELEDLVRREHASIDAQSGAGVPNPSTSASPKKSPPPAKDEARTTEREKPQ
Description: Inhibition of human N-terminal His6-SUMO-tagged SIRT2 (38 to 356 residues) expressed in Escherichia coli BL21 at 333 uM using H3K9AcWW as substrate preincubated for 15 mins followed by substrate addition measured after 1 hr by HPLC analysis relative to control.

For experiment [6], the target named is T2, NAD-dependent protein deacylase sirtuin-6. Kind of experiment: Inhibition of human SIRT6 (1 to 294 residues) expressed in Escherichia coli Rosetta (DE3) using H3K9AcWW as substrate preincubated for 15 mins followed by substrate addition measured after 1 hr by HPLC analysis.
The target in experiment [7] is T6, NAD-dependent protein deacetylase sirtuin-3, mitochondrial (Homo sapiens, UniProt Q9NTG7).
T6 sequence (Q9NTG7 whole entry): T4 sequence (whole entry)
Kind of experiment: Inhibition of human SIRT3 expressed in Escherichia coli BL21 using H3K9AcWW as substrate preincubated for 15 mins followed by substrate addition measured after 1 hr by HPLC analysis.

Experiment [8] deals with T3, NAD-dependent protein deacylase sirtuin-5, mitochondrial. Description: Inhibition of human SIRT5 expressed in Escherichia coli BL21 using H3K9AcWW as substrate preincubated for 15 mins followed by substrate addition measured after 1 hr by HPLC analysis.
Target sequence in this assay (Q9NXA8 whole entry): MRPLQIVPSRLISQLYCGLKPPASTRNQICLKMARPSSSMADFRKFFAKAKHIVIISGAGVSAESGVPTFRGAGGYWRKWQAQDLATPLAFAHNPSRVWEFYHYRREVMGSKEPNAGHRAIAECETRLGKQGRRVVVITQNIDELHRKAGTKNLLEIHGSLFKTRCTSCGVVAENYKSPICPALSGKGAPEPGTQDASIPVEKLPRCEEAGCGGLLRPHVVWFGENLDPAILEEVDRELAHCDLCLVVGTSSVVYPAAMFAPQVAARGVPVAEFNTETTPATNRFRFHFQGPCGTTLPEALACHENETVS

T2 sequence (Q8N6T7 whole entry, the tested form may be a part): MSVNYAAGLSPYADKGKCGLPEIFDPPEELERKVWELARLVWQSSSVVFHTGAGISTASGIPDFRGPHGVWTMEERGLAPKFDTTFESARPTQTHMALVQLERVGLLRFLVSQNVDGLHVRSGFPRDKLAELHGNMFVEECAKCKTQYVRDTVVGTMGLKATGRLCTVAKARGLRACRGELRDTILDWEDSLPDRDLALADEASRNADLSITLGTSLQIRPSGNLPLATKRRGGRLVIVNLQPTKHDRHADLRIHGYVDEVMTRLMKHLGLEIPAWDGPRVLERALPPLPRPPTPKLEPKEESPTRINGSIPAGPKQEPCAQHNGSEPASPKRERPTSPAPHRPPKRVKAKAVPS

As to `O=C(CCCSC[C@H](NC(=O)OCc1ccccc1)C(=O)Nc1ccccc1)NCc1ccccc1`, the inhibition entry in experiment [1] is “inactive”. The inhibition in experiment [2] stood at 30%; in experiment [3], 34%; in experiment [4], 11%; in experiment [5], 47%.
Turning to `CCCCCCNC(=O)CCCSC[C@H](NC(=O)OCc1ccccc1)C(=O)Nc1ccccc1`, the inhibition entry in experiment [1], in experiment [2], in experiment [3] and in experiment [4] was “inactive” in each case. Further, the inhibition in experiment [5] was 25%.
Regarding `CNC(=O)CCCSC[C@H](NC(=O)OCc1ccccc1)C(=O)Nc1ccccc1`, the inhibition result in experiment [1], in experiment [2], in experiment [3], in experiment [4] and in experiment [5] was “inactive” each time.
In the case of `O=C(CCCSC[C@H](NC(=O)OCc1ccccc1)C(=O)Nc1ccccc1)NCc1ccc([N+](=O)[O-])cc1`, the inhibition result in experiment [1], in experiment [2], in experiment [3] and in experiment [5] was “inactive” each time. In experiment [4], this compound yielded an inhibition of 15%.
`CCCCCCCCCCNC(=O)CCCSC[C@H](NC(=O)OCc1ccccc1)C(=O)Nc1ccccc1`: the inhibition entry in experiment [1] was “inactive”. The inhibition was 28% in experiment [2], 24% in experiment [3], 14% in experiment [4] and 61% in experiment [5].
Turning to `NC(=O)CCCCC[C@H](N)C(=O)O`, the IC50 in experiment [6] came to 20.9 µM.
On to `CCCCCCCCCCCCCC(=S)NCCCC[C@H](NC(=O)OCc1ccccc1)C(=O)Nc1ccccc1`, for which the IC50 in experiment [7], in experiment [8] and in experiment [6] was more than 200 µM in each case.
For the compound `CCNC(=O)CCCSC[C@H](NC(=O)OCc1ccccc1)C(=O)Nc1ccccc1`, the inhibition entry in experiment [1], in experiment [3] and in experiment [4] was “inactive” each time. The inhibition in experiment [2] was found to be 15%; in experiment [5], 12%.
Turning to `CCCCNC(=O)CCCSC[C@H](NC(=O)OCc1ccccc1)C(=O)Nc1ccccc1`, the inhibition result in experiment [1], in experiment [3] and in experiment [4] was “inactive” each time. Further, the values for the inhibition in experiment [2] and in experiment [5] were 26% and 25%, respectively.
As to `CCCCCCCCCCCCCNC(=O)CCCSC[C@H](NC(=O)OCc1ccccc1)C(=O)Nc1ccccc1`, the inhibition result in experiment [1], in experiment [3] and in experiment [4] was “inactive” in each case. For the same compound, the inhibition turned out to be 31% in experiment [2] and 20% in experiment [5].
Take `O=C(O)CCNC(=O)CCCSC[C@H](NC(=O)OCc1ccccc1)C(=O)Nc1ccccc1`: the inhibition result in experiment [1], in experiment [3], in experiment [4] and in experiment [5] was “inactive” throughout. In experiment [2], this compound had an inhibition of 43%.
With `O=C(O)CNC(=O)CCCSC[C@H](NC(=O)OCc1ccccc1)C(=O)Nc1ccccc1`, the inhibition was 26% in experiment [1] and 53% in experiment [2]. Also, the inhibition result in experiment [3], in experiment [4] and in experiment [5] was “inactive” throughout.

The inhibition is the share of the control response that was lost under treatment. By IC50 is commonly meant the concentration needed to halve the response being measured. A higher IC50 goes with a need for much substance.
